Experiment: xn = mol fraction of the nth substance listed
Conditions: 101 kPa, Liquid; for viscosity: Falling or rolling sphere viscometry; for speed of sound: Frequency=3 MHz, Sing-around technique in a fixed-path interferometer; for mass density: Vibrating tube method

CCCC[n+]1ccn(C)c1.O=S(=O)([N-]S(=O)(=O)C(F)(F)F)C(F)(F)F + CCCO
Conditions | mass density [kg/m3] | speed of sound [m/s] | viscosity [mPa·s]
278.15 K, x1 = 0.0508 | 926.62 | 1252.2 | 4.722
278.15 K, x1 = 0.0949 | 1002.03 | 1241 | 6.623
278.15 K, x1 = 0.1989 | 1130.78 | 1235.7 | 11.44
278.15 K, x1 = 0.2976 | 1214 | 1239.7 | 16.84
278.15 K, x1 = 0.3912 | 1272.23 | 1245.7 | 22.98
278.15 K, x1 = 0.4852 | 1317.37 | 1250.9 | 31.14
278.15 K, x1 = 0.5929 | 1358.04 | 1256.8 | 42.15
278.15 K, x1 = 0.692 | 1388.04 | 1261.7 | 56.15
278.15 K, x1 = 0.7968 | 1414.14 | 1266.2 | 76.57
278.15 K, x1 = 0.903 | 1436.28 | 1270.3 | 102.44
298.15 K, x1 = 0.0508 | 909.64 | 1188.9 | 2.701
298.15 K, x1 = 0.0949 | 984.4 | 1181.4 | 3.573
298.15 K, x1 = 0.1989 | 1112.17 | 1180.9 | 5.908
298.15 K, x1 = 0.2976 | 1194.92 | 1187.6 | 8.374
298.15 K, x1 = 0.3912 | 1252.93 | 1195.6 | 10.88
298.15 K, x1 = 0.4852 | 1297.96 | 1201.7 | 14.14
298.15 K, x1 = 0.5929 | 1338.58 | 1208.6 | 18.55
298.15 K, x1 = 0.692 | 1368.59 | 1214.5 | 23.83
298.15 K, x1 = 0.7968 | 1394.7 | 1219.5 | 30.51
298.15 K, x1 = 0.903 | 1416.85 | 1224 | 39.95
318.15 K, x1 = 0.0508 | 892.29 | 1127.5 | 1.693
318.15 K, x1 = 0.0949 | 966.47 | 1123.7 | 2.187
318.15 K, x1 = 0.1989 | 1093.43 | 1128.2 | 3.491
318.15 K, x1 = 0.2976 | 1175.83 | 1137.6 | 4.677
318.15 K, x1 = 0.3912 | 1233.7 | 1147.2 | 6.173
318.15 K, x1 = 0.4852 | 1278.71 | 1154.6 | 7.805
318.15 K, x1 = 0.5929 | 1319.36 | 1162.5 | 10.1
318.15 K, x1 = 0.692 | 1349.4 | 1169.2 | 12.76
318.15 K, x1 = 0.7968 | 1375.56 | 1174.9 | 15.78
318.15 K, x1 = 0.903 | 1397.74 | 1180.1 | 19.35
338.15 K, x1 = 0.0508 | 874.3 | – | 1.136
338.15 K, x1 = 0.0519 | – | 1066.7 | –
338.15 K, x1 = 0.0949 | 948.03 | – | 1.457
338.15 K, x1 = 0.1037 | – | 1066.7 | –
338.15 K, x1 = 0.1989 | 1074.44 | – | 2.303
338.15 K, x1 = 0.2013 | – | 1076.8 | –
338.15 K, x1 = 0.2976 | 1156.66 | – | 3.004
338.15 K, x1 = 0.3088 | – | 1089 | –
338.15 K, x1 = 0.3912 | 1214.5 | – | 3.93
338.15 K, x1 = 0.3963 | – | 1100 | –
338.15 K, x1 = 0.4852 | 1259.59 | – | 4.908
338.15 K, x1 = 0.4918 | – | 1109.1 | –
338.15 K, x1 = 0.5723 | – | 1118.3 | –
338.15 K, x1 = 0.5929 | 1300.32 | – | 6.258
338.15 K, x1 = 0.692 | 1330.43 | – | 7.446
338.15 K, x1 = 0.7026 | – | 1125.4 | –
338.15 K, x1 = 0.7968 | 1356.65 | – | 9.633
338.15 K, x1 = 0.8055 | – | 1132 | –
338.15 K, x1 = 0.9025 | – | 1137.8 | –
338.15 K, x1 = 0.903 | 1378.89 | – | 11.48

CCn1cc[n+](C)c1.O=S(=O)([N-]S(=O)(=O)C(F)(F)F)C(F)(F)F + CCCO
Conditions | mass density [kg/m3] | speed of sound [m/s] | viscosity [mPa·s]
278.15 K, x1 = 0.4918 | 1372.4 | 1253.1 | 20.94
278.15 K, x1 = 0.5723 | 1410.18 | 1259.6 | 25.39
278.15 K, x1 = 0.7026 | 1459.58 | 1268.7 | 34.81
278.15 K, x1 = 0.8055 | 1491.11 | 1274.9 | 44.9
278.15 K, x1 = 0.9025 | 1516.35 | 1280 | 56.99
298.15 K, x1 = 0.0519 | 914.24 | 1184.8 | 2.639
298.15 K, x1 = 0.1037 | 1005.11 | 1175.1 | 3.53
298.15 K, x1 = 0.2013 | 1134.16 | 1175.8 | 5.134
298.15 K, x1 = 0.3088 | 1235.5 | 1186.2 | 6.891
298.15 K, x1 = 0.3963 | 1297.78 | 1195.6 | 8.358
298.15 K, x1 = 0.4918 | 1352.18 | 1205 | 10.6
298.15 K, x1 = 0.5723 | 1389.87 | 1212.2 | 12.63
298.15 K, x1 = 0.7026 | 1439.2 | 1222.2 | 16.89
298.15 K, x1 = 0.8055 | 1470.7 | 1228.9 | 21.07
298.15 K, x1 = 0.9025 | 1495.92 | 1234.3 | 25.97
318.15 K, x1 = 0.0519 | 896.79 | 1124.1 | 1.656
318.15 K, x1 = 0.1037 | 986.91 | 1119.3 | 2.083
318.15 K, x1 = 0.2013 | 1115.01 | 1124.8 | 2.938
318.15 K, x1 = 0.3088 | 1215.8 | 1137.8 | 3.978
318.15 K, x1 = 0.3963 | 1277.87 | 1148.3 | 4.994
318.15 K, x1 = 0.4918 | 1332.15 | 1158.9 | 6.245
318.15 K, x1 = 0.5723 | 1369.81 | 1166.8 | 7.454
318.15 K, x1 = 0.7026 | 1419.12 | 1177.7 | 9.792
318.15 K, x1 = 0.8055 | 1450.62 | 1185 | 11.97
318.15 K, x1 = 0.9025 | 1475.84 | 1191 | 14.58
338.15 K, x1 = 0.0519 | 878.72 | 1064.4 | 1.117
338.15 K, x1 = 0.1037 | 968.2 | 1064.1 | 1.389
338.15 K, x1 = 0.2013 | 1095.6 | 1074.6 | 1.956
338.15 K, x1 = 0.3088 | 1196.06 | 1090.4 | 2.656
338.15 K, x1 = 0.3963 | 1258.02 | 1102.6 | 3.333
338.15 K, x1 = 0.4918 | 1312.29 | 1114.4 | 4.156
338.15 K, x1 = 0.5723 | 1349.96 | 1123.2 | 4.931
338.15 K, x1 = 0.7026 | 1399.28 | 1135.3 | 6.395
338.15 K, x1 = 0.8055 | 1430.83 | 1143.2 | 7.634
338.15 K, x1 = 0.9025 | 1456.06 | 1149.7 | 9.201
